Test results taken from PMC10352325, “Nitro-benzylideneoxymorphone, a bifunctional mu and delta opioid receptor ligand with high mu opioid receptor efficacy” (Frontiers in Pharmacology, 2023).
Where “and” joins values, the source holds several entries; their conditions need not be identical. Equal entries are not always repeated.

How the values were obtained:
MOPr [1] = target: T1, MOPr (Homo sapiens, UniProt P35372); experiment: [35S]GTPγS coupling, MOPr-CHO membranes; format: biochemical; settings: for Emax: read-out: MOPr Emax ±SEM
T1 construct: host or cells: CHO
T1 sequence (P35372 whole entry): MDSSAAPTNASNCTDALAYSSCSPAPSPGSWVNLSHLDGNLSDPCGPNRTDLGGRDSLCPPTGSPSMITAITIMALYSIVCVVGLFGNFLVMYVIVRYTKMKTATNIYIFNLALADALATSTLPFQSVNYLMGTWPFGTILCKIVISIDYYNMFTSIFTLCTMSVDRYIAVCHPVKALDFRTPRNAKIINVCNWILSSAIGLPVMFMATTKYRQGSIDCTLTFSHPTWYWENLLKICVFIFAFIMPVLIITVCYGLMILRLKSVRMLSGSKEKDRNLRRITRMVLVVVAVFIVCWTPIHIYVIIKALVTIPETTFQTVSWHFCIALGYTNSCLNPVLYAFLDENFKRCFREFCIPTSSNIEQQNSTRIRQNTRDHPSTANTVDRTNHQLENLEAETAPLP

DOPr [2] = target: T2, DOPr (Homo sapiens, UniProt P41143); experiment: biochemical; settings: for Emax: read-out: DOPr Emax ±SEM; for Selectivity DOPr/MOPr (EC50): ratio of [35S]GTPγS EC50
T2 construct: host or cells: CHO
T2 sequence (P41143 whole entry): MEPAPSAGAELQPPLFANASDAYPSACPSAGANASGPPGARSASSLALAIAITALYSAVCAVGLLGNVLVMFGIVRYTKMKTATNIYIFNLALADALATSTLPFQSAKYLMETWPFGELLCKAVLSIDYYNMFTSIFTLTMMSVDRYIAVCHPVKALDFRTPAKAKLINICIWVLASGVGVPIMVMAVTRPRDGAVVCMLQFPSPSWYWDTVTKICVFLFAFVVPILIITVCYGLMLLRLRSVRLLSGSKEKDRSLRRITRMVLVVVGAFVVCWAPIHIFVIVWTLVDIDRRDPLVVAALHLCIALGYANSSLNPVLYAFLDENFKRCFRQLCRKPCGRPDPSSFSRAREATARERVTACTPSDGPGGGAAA

C57BL/6 mice [3] = experiment: Acute antinociception, 50°C warm water tail withdrawal (WWTW); format: in vivo, mouse; settings: i.p.; for tail withdrawal latency, dose-response: 30 min before 50°C WWTW, C57BL/6 WT mice
Procedure: The 50°C warm water tail withdrawal (WWTW) antinociception assay is a standard preclinical pain assay, in which clinical analgesics increase the latency of tail removal from the warm water (Figure 2A).
To compare the total antinociceptive activity over time, we determined the area under the curve (AUC) of each ligand’s time-course.
Acute antinociception: 50°C warm-water tail withdrawal test in C57BL/6 mice. […] A maximum cutoff time of 20 s was implemented to prevent tissue damage. […] Drug-stimulated antinociception was expressed as a percentage of maximum possible effect (% MPE), where % MPE = (drug latency—baseline latency)/(cutoff latency—baseline latency) × 100. The acute antinociception results were analyzed with a one-way ANOVA followed by a post hoc Dunnett test comparing the drug(s) to vehicle.

C57BL/6 mice [4] = experiment: Chronic administration and antinociceptive tolerance, 50°C WWTW; format: in vivo, mouse; settings: for day of first statistically significant antinociceptive tolerance: 10 mg/kg morphine, 32 mg/kg 12, i.p. 3x daily, WT mice
Procedure: As expected, the OPr antagonist and MOPr KO experiments indicate that antinociception and likely tolerance are MOPr-mediated effects.
Chronic administration and antinociceptive tolerance. To investigate antinociceptive tolerance, either C57BL/6 WT or MOR KO mice were administered (i.p.) drug 2-3 times a day as indicated (Figure 3). […]. Mice administered with 12 were injected with 0.5 mL 0.9% saline (s.c.) twice daily. Mice were injected again at 7 p.m. on day 1, but neither weighed nor tested for antinociception. […]. A two-way analysis of variance (ANOVA) was conducted for all tolerance assays. The significance threshold was p < 0.05, and a Tukey post hoc test followed all significant ANOVAs.

C57BL/6 mice [5] = experiment: Toxicology on chronic administration (body weight, health); format: in vivo, mouse; settings: for weight-loss on chronic administration: 32 mg/kg, C57BL/6 WT mice, tolerance experiment; for health on repeated administration (need for euthanasia): preliminary experiments, without saline supplement
rats = test system: rats; parameters: method as in Mada et al., 2020; settings: ref Mada et al., 2020; cited from earlier work
DOPr [6] = target: T2, DOPr; experiment: biochemical; format: binding; settings: for DOPr ΔG: Gibb's free energy converted from experimental Ki
Procedure: (§1) Cell lines, cell culture, and drug preparation. The hDOPr-CHO cell line was a generous gift from Dr. Larry Toll at the Torrey Pines Institute. The hMOPr- and hKOPr-CHO cell lines were generous gifts from John M. Streicher at the University of Arizona. All cells were cultured in 50:50 DMEM/F12 media with 10% heat-inactivated FBS and 1X penicillin/streptomycin supplement (all Gibco brand) in a 37°C humidified incubator with 5% CO2 atmosphere. Propagation cultures were further maintained with 500 μg/mL G418. Cultures were propagated for no more than 30 passages before discarding. […] Cell pellets were resuspended in 50 mM Tris HCl pH 7.4 and homogenized with a tissue grinder for 15–30 s on ice. Crude membranes were spun down at 15,000 g for 30 min. This process was repeated, and membrane preparations were stored at −80°C prior to use.
(§2) Briefly, these reactions were miniaturized to a 400 μL volume in 96 well plates and incubated at RT for 1 h at DOPr-, KOPr- and MOPr-CHO membrane preparations. The reactions were terminated by rapid filtration through 96-well format GF/B filter plates (PerkinElmer) and washed with cold 25 mM Tris HCl pH 7.4 buffer, dried, and added ECOLUME^TM scintillation cocktail from MP Biomedicals (Santa Cruz, CA, United States). The plates were read in a MicroBeta2 96-well format 6 detector scintillation counter (PerkinElmer). KI values were calculated using the IC50 of each competitor ligand and the previously established KD of ^3H-diprenorphine in each cell line using a competition binding model (GraphPad Prism 7.0).

KOPr [7] = target: T3, KOPr (Homo sapiens, UniProt P41145); experiment: biochemical; format: binding; settings: for Ki: [3H]-diprenorphine, CHO membranes, n = 3, mean ± SEM; for Selectivity KOPr/MOPr (Ki): ratio of binding Ki
T3 construct: host or cells: CHO
T3 sequence (P41145 whole entry): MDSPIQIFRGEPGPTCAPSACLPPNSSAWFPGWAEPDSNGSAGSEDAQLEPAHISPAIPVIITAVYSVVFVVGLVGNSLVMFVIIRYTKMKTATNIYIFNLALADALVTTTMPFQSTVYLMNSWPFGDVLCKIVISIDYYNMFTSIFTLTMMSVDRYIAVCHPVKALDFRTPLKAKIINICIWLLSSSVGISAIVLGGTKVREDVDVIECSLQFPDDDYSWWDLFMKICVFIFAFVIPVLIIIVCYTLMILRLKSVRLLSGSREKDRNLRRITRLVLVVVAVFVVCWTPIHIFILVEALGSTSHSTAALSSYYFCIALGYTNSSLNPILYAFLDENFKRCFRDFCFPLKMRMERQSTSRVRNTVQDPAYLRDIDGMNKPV
Procedure: as §1, §2

MOPr [8] = target: T1, MOPr; experiment: biochemical; format: binding; settings: for MOPr ΔG: Gibb's free energy converted from experimental Ki; for Ki: [3H]-diprenorphine, CHO membranes, n = 3, mean ± SEM
Procedure: as §1, §2

KOPr [9] = target: T3, KOPr; experiment: [35S]GTPγS coupling, KOPr-CHO membranes; format: biochemical; settings: Emax% relative to U69,593, read-out: KOPr Emax ±SEM
DOPr [10] = target: T2, DOPr; experiment: βarrestin2 recruitment (DiscoveRx PathHunter); format: cell-based
Description: We further evaluated 12 in βarrestin2 recruitment assays (DiscoveRx) to evaluate DOPr agonist vs. antagonist efficacy in a higher efficacy requiring assay (Supplementary Figure S1). […] None of the compounds in this series stimulated KOPr-mediated G-protein recruitment. Retaining selectivity over KOPr is vital because KOPr agonists cause dysphoria and hallucinations ([Bruchas et al., 2007]; [Cunningham et al., 2011]).
βarrestin2 recruitment. βarrestin2 recruitment in CHO cells expressing […] was measured using the DiscoverRx PathHunter® assay kit (DiscoveRx, Fremont, CA) according to the manufacturer’s protocol. Assays were performed on at least three separate occasions in triplicate. Luminescence was read using a Synergy 2 plate reader (BioTek, Winooski, VT).

SMILES | EC50 (MOPr [1]) [nM] | Emax (MOPr [1]) [%] | EC50 (DOPr [2]) [nM] | Emax (DOPr [2]) [%] | Ki (DOPr [6]) [nM] | DOPr ΔG (DOPr [6]) [kcal/mol] | Ki (KOPr [7]) [nM] | Selectivity KOPr/MOPr (Ki) (KOPr [7]) | MOPr ΔG (MOPr [8]) [kcal/mol] | Ki (MOPr [8]) | Selectivity DOPr/MOPr (EC50) (DOPr [2]) | other results
CN1CC[C@]23c4c5ccc(O)c4O[C@H]2C(=O)/C(=C/c2ccccc2)C[C@@]3(O)[C@H]1C5 [Compound 5, 7-E-benzylideneoxymorphone] | 63 ± 25 | 53 ± 9 | 26 ± 4 | 22 ± 4 | – | – | – | – | – | – | – | tail withdrawal latency, dose-response (C57BL/6 mice [3]): negligible antinociception; antinociception in the tolerance paradigm (C57BL/6 mice [4]; 32 mg/kg, C57BL/6 WT mice): neither weight-loss nor antinociception; weight-loss on chronic administration (C57BL/6 mice [5]): neither weight-loss nor antinociception; antinociception in the warm water tail withdrawal test (rats): < 20 % MPE
CN1CC[C@]23c4c5ccc(O)c4O[C@H]2C(=O)/C(=C/c2ccc(F)cc2)C[C@@]3(O)[C@H]1C5 [Compound 7] | 95 ± 25 | 69 ± 16 | – | < 15 | 55 ± 8 | -9.97 ± 0.08 | > 1000 | >50 | -10.57 ± 0.28 | 19.9 ± 11.7 nM | – | –
CN1CC[C@]23c4c5ccc(O)c4O[C@H]2C(=O)/C(=C/c2ccc(Cl)cc2)C[C@@]3(O)[C@H]1C5 [Compound 8] | > 1000 | – | 145 ± 14 | 9 ± 3 | 47 ± 16 | -10.06 ± 0.17 | > 1000 | >42 | -10.46 ± 0.03 | 23.8 ± 1.2 nM | <0.15 | –
CN1CC[C@]23c4c5ccc(O)c4O[C@H]2C(=O)/C(=C/c2ccc(Br)cc2)C[C@@]3(O)[C@H]1C5 [Compound 9] | > 1000 | – | – | < 15 | 121 ± 45 | -9.50 ± 0.19 | > 1000 | >25 | -10.16 ± 0.14 | 39.9 ± 10.5 nM | – | –
COc1ccc(/C=C2\C[C@@]3(O)[C@H]4Cc5ccc(O)c6c5[C@@]3(CCN4C)[C@@H](O6)C2=O)cc1 [Compound 10] | 172 ± 55 | 80 ± 5 | 102 ± 8 | 30 ± 9 | 37 ± 9 | -10.20 ± 0.13 | > 1000 | >90 | -10.92 ± 0.12 | 11 ± 2.4 nM | 0.59 | –
CN1CC[C@]23c4c5ccc(O)c4O[C@H]2C(=O)/C(=C/c2ccc(O)cc2)C[C@@]3(O)[C@H]1C5 [Compound 11] | 275 ± 100 | 85 ± 6 | 97 ± 40 | 21 ± 6 | 37 ± 7 | -10.20 ± 0.10 | > 1000 | >44 | -10.49 ± 0.14 | 22.7 ± 6 nM | 0.35 | –
CN1CC[C@]23c4c5ccc(O)c4O[C@H]2C(=O)/C(=C/c2ccc([N+](=O)[O-])cc2)C[C@@]3(O)[C@H]1C5 [Compound 12, Nitro-benzylideneoxymorphone] | 2.2 ± 0.5 | 87 ± 7 | 20 ± 5 | 28 ± 4 | 10 ± 3 | -10.98 ± 0.16 | 180 ± 60 | 197 | -12.42 ± 0.17 | 0.9 ± 0.3 nM | 9.1 | MOPr potency relative to that reported for oxymorphone (MOPr [1]; higher potency than oxymorphone (Olson et al., 2019)): approximately 10 fold; Emax (KOPr [9]): < 15%; Kb (DOPr [10]): 32 nM; DOPr-mediated βarrestin2 recruitment, compound alone (DOPr [10]; agonist mode, any concentration): did not stimulate; area under the curve (AUC) of antinociceptive time-course (C57BL/6 mice [3]; 32 mg/kg 12 or 10 mg/kg morphine, tested every 30 min): 9247 s*min; tail withdrawal latency, dose-response (C57BL/6 mice [3]): dose-dependent increase in tail withdrawal latency; antinociceptive potency relative to morphine (C57BL/6 mice [3]; less potent than morphine, WWTW): approximately 3 fold; day of first statistically significant antinociceptive tolerance (C57BL/6 mice [4]): 2 days; antinociception after naloxone pretreatment (C57BL/6 mice [4]; 32 mg/kg 12, 10 mg/kg naloxone pretreatment, C57BL/6 WT): blocked antinociception; antinociception in MOPr KO mice (C57BL/6 mice [4]; 32 mg/kg i.p., C57BL/6 MOPr KO): did not show antinociception; weight-loss on chronic administration (C57BL/6 mice [5]): equal or greater weight-loss than those treated with morphine; health on repeated administration (need for euthanasia) (C57BL/6 mice [5]): became sick and had to be euthanized
CN1CC[C@]23c4c5ccc(O)c4O[C@H]2C(=O)/C(=C/c2cccc4ccccc24)C[C@@]3(O)[C@H]1C5 [Compound 13] | > 1000 | – | 102 ± 37 | 36 ± 10 | 56 ± 20 | -9.95 ± 0.18 | > 1000 | >13 | -9.78 ± 0.17 | 75 nM and 74.8 nM | – | –
CN1CC[C@]23c4c5ccc(O)c4O[C@H]2C(=O)/C(=C/c2ccc4ccccc4c2)C[C@@]3(O)[C@H]1C5 [Compound 14] | 12 ± 5 | 78 ± 11 | – | < 15 | 36 ± 4 | -10.22 ± 0.06 | 390 ± 140 | 299 | -12.20 ± 0.29 | 1.3 ± 0.8 nM | – | Emax (KOPr [9]): < 15%
CN1CC[C@]23c4c5ccc(O)c4O[C@H]2[C@@H](O)C=C[C@H]3[C@H]1C5 [morphine, reference compound] | – | – | – | – | – | – | – | – | – | – | – | day of first statistically significant antinociceptive tolerance (C57BL/6 mice [4]): 3 days; health on repeated administration (need for euthanasia) (C57BL/6 mice [5]): did not require euthanasia
